Data from patent US5183826A, “Antiviral agent” (Merck & Co., Inc., priority 1990, dated 1993).

Columns and labels:
[1] = tested on: platelet activating factor; assay: assay for platelet activating factor
[2] = solubility in organic solvents; conditions: methanol, ethanol, isopropanol, ethyl acetate, chloroform, dimethylformamide, benzene, diethyl ether, dimethyl sulfoxide
[3] = molecular target: T1, HIV protease (Human immunodeficiency virus type 1 group M subtype B, UniProt P12497); assay: HIV protease inhibition: cleavage of radiolabelled synthetic peptide substrate (beta-naphthylalanine-proline bond); assay type: biochemical; conditions: for Disintegrations/Minute: Blank 236, Total (Control) 4497
T1 construct: ability of a HIV protease to cleave the peptide bond
Text: The HIV protease inhibitor activity may be seen in an assay to test the presence of a compound which affects the ability of a HIV protease to cleave the peptide bond between β-naphthylalanine and proline. A suitable substrate is ^3 H β-casein. However, a synthetic peptide containing the β-naphthylalanine and proline link gives more consistent results and one especially preferred is a peptide which is radioactively labelled at one terminus and arginine substituted at the other terminus thereby allowing the basic end to be bound to a cation exchange resin and the cleaved labelled fragment to be found in the eluate.
In a representative assay, 25 μl of a dilute peptide substrate solution containing 0.5 μl of the substrate in a 100 mM sodium acetate buffer was added to an assay tube containing (a) 45 μl of 111 mM sodium acetate buffer, (b) 25 μl of a diluted protease solution containing 0.4% bovine serum albumin (BSA) and (c) 5 μl of a solution containing from 0.63 to 210 μM of Compound I, or to blank tubes containing 25 μl of 100 mM sodium acetate plus 0.4 percent BSA, 45 μl of 111 mM sodium acetate buffer and 5 μl of dimethyl sulfoxide (DMSO) (99 vols. DMSO plus 1 vol 100 mM tris(hydroxymethyl)aminomethane (TRIS·HCl), pH 7.5). In the tubes, the concentration of the protease solution is 2.0 nM. The assay tubes are then incubated for 37° C. for 60 minutes and the reaction then quenched with 100 μl of 5% H3 PO4.
150 microliters of the reaction mixture was placed on a cation exchange column (Dowex AG-50W-X8, Dow Chemical Company) and the column then washed with 1.85 milliliters of water and the effluents collected in scintillation vials. 7-10 milliliters of scintillation cocktails were added to each vial, the vials vortexed vigorously, then placed in the scintillation counter and counted using the tritium channel. The results were as follows:
The percent inhibition was obtained by the following calculation: [formula]

[4] = cytotoxic and other side effects (statement)
[5] = tested on: proteases; assay: specificity against other proteases (statement); assay type: biochemical; conditions: no inhibitory effect or some activity only against proteases whose locus of action is avoidable

Which “activity in an assay for platelet activating factor” value [1] does the source give for `C=C1C(C)C2C(Cc3ccccc3)NC(=O)C23C(OC(C)=O)/C=C/C(C)CC(C)C/C=C/C3C1O` (stereo not shown) [Compound I] here?
The value was “some activity”.

And the “solubility in organic solvents” value [2]?
The value was “soluble in organic solvents”.

What about the “HIV protease inhibition (general statement in words)” value [3] of the same compound?
Its value is “very effective HIV protease inhibitor”.

And the IC50 [3]?
Its IC50 is roughly 6.28 µM.

And the Disintegrations/Minute ([3]; Compound I 2.1 μM)?
Its Disintegrations/Minute is 3862 Disintegrations/Minute.

What about the inhibition at 2.1 µM ([3]; Compound I 2.1 μM, protease 2.0 nM, 37° C., 60 minutes, read-out: Percent Inhibition) of the same compound?
The inhibition at 2.1 µM was 15%.

And the Disintegrations/Minute ([3]; Compound I 6.3 μM)?
Its Disintegrations/Minute is 2309 Disintegrations/Minute.

What about the inhibition at 6.3 µM ([3]; Compound I 6.3 μM, protease 2.0 nM, 37° C., 60 minutes, read-out: Percent Inhibition) of the same compound?
Its inhibition at 6.3 µM is 51%.

And the Disintegrations/Minute ([3]; Compound I 21 μM)?
Its Disintegrations/Minute is 1139 Disintegrations/Minute.

What about the inhibition at 21 µM (stock) ([3]; Compound I 21 μM, protease 2.0 nM, 37° C., 60 minutes, read-out: Percent Inhibition) of the same compound?
Its inhibition at 21 µM (stock) is 79%.

What about the Disintegrations/Minute ([3]; Compound I 63 μM) of the same compound?
Its Disintegrations/Minute is 550 Disintegrations/Minute.

What about the inhibition at 63 µM ([3]; Compound I 63 μM, protease 2.0 nM, 37° C., 60 minutes, read-out: Percent Inhibition) of the same compound?
The inhibition at 63 µM was 93%.

And the Disintegrations/Minute ([3]; Compound I 210 μM)?
Its Disintegrations/Minute is 402 Disintegrations/Minute.

What about the inhibition at 210 µM ([3]; Compound I 210 μM, protease 2.0 nM, 37° C., 60 minutes, read-out: Percent Inhibition) of the same compound?
The inhibition at 210 µM was 96%.

What about the Disintegrations/Minute ([3]; Compound I .63 μM) of the same compound?
Its Disintegrations/Minute is 5265 Disintegrations/Minute.

What about the inhibition at 0.63 µM (stock) ([3]; Compound I .63 μM, protease 2.0 nM, 37° C., 60 minutes, read-out: Percent Inhibition) of the same compound?
Its inhibition at 0.63 µM (stock) is -18%.

What about the “inhibition of HIV protease (in words)” value ([3]; concentration of Compound I about 63 μm or greater) of the same compound?
The value was “very high degree to substantially complete inhibition”.

What about the “undesirable cytotoxic and other side effects” value [4] of the same compound?
Its value is “substantially free of undesirable cytotoxic and other side effects”.

What about the specificity among proteases [5] of the same compound?
Its specificity among proteases is “highly specific having no inhibitory effect or showing some activity only against proteases whose locus of action is avoidable”.
